# Experimental data published in patent EP4623911A1, “PI4KB INHIBITORS FOR THE TREATMENT OF FATTY LIVER DISEASE” (ETH Zurich, priority 2024, dated 2025).
# Assays:
# [1] = Indirect calorimetry in HFD-fed mice; assay type: in vivo; conditions: HFD mixed with UCB9608 (5 mg/kg) for 3 weeks, vs DMSO
# Protocol: 8-10 weeks old C57BL/6N male mice were fed on HFD mixing with DMSO or UCB9608 (5 mg/kg) for 3 weeks before indirect calorimetry measurements were performed with Phenomaster (TSE systems) according to the manufacturer's instructions. Animals were single caged and adapted to the metabolic cage for 48h prior to metabolic recording. The energy expenditure between both groups was analyzed via ANCOVA method and RER was analyzed via two-way ANOVA method.
# [2] = system: steatotic human liver; test: Ex vivo normothermic machine perfusion of a steatotic human liver graft
# Protocol: A human liver graft was perfused for 8 days, after being discarded from all Swiss transplant centers. Use of discarded grafts was approved by local authorities (Kantonale Ethik Kommission Zürich KEK Nr. 2017-000412). […] The liver was procured with a total ischemia time of 40 min after circulatory death of the donor. It was flushed with IGL-1 solution and perfused for 2 h with Belzer MPS at 8°C. The infrahepatic vena cava was closed with a suture and the hepatic artery, portal vein, suprahepatic vena cava and common bile duct were cannulated with steel cannulas. The graft was subsequently perfused with whole blood and a custom built normothermic perfusion machine (Eshmuminov,D. et al, Nat Biotechnol 38, (2020)). Hepatic arterial pressure was controlled to be 80/50 mmHg, allowing for an average flow of 0.25 L/min. A vasodilator, epoprostenol, was automatically infused to keep arterial flow stable. Oxygenation was automatically controlled with a setpoint partial pressure of oxygen equal to 12 kPa. Portal venous flow was controlled to be at 1 L/min, resulting in a pressure of 2 mmHg on average. Further, oxygenation of portal blood was automatically regulated to achieve 65% saturation in the vena cava. Use of an electric pinch valve further allowed for pressure regulation in the vena cava, keeping a constant pressure of 0 mmHg. Glucose levels were automatically controlled by using a real-time glucose sensor (CCIT) and automated insulin infusions, keeping glucose levels at 7 mmol/L from the second day of perfusion onwards. A dialysis bypass was used to clear waste metabolites and control haematocrit levels by using a fixed dialysate influx rate of 200 mL/h and an automatically controlled outflux. Liver function was well preserved for at least 6 days and cell viability, as monitored by ATP analysis and histology, remained until the end of perfusion. After 8 days of perfusion, the liver weight decreased to 1507g (without gallbladder) and was sent for pathological examination.
# Perfusate was mixed with 6 units of red blood cell concentrate (A+), 5 units of fresh frozen […], one unit of thrombocytes and 200 mL of 20% human albumin (CSL Behring). An initial bolus of 2.25 g Tazobactam and 500 mg Methylprednisolone was administered after priming. During the perfusion, 1000 U of heparin were infused per hour. Further, 2.25 g of Tazobactam, 3.36 g of ursodesoxycholic acid and 500 mg of methylprednisolone were continuously infused per day. UCB9608 was administered as a daily bolus by adding 300 µL of 50 mM solution directly to the blood reservoir, targeting a final concentration in the perfusate of 10 µM. On the first day, a larger bolus of 600 µL was given.
# Adipose depots, liver pieces, differentiated iBAs, HepG2, HEK293T and HEK293-AAV cell types were homogenized in RIPA buffer (50 mM Tris-HCl pH 7.4, 150 mM NaCl, 2 mM EDTA, 1.0% Triton X100, 0.5% sodium deoxycholate) with protease inhibitors (Complete, Roche) and phosphatase inhibitors (Halt phosphatase inhibitor cocktail, ThermoFisher). The homogenates were centrifuged at 12,000×g for 10 min at 4°C to remove debris and collect whole cell extract (WCE). The concentration of WCE was determined by DC Protein Assay (Bio-Rad). After boiling the sample with Lämmeli buffer at 95°C for 5 min, equal amount of proteins was loaded and separated on 12% SDS-PAGE. […]
# [3] = UCB9608 daily, target concentration 10 µM, 8 days perfusion, unchanged in two control grafts
compound,measurement,setting,value
COc1ccc(NC(=O)N2CCN(c3nc(N)nc4c3cnn4C)[C@@H](C)C2)c(C)c1 [UCB9608],energy expenditure,[1],higher
same,ATGL levels in human liver biopsies,[2]; [3],substantially elevated
same,TG deposition in human liver biopsies,[2]; [3],reduced
same,macrovesicular steatosis of the liver graft,"[2]; after 8 days of perfusion, 15% before perfusion",less than 5%
same,bile acid excretion and oxygen consumption of the graft,[2]; during perfusion with UCB9608,normal
same,non-esterified fatty acids (NEFAs) from dialysate,[2]; during perfusion with UCB9608,detected
